A short description of series [1]: Metabolic stability in rat hepatocytes assessed as intrinsic clearance. Format: ADME, cell-based, Hepatocyte.
A short description of series [2]: Apparent permeability in dog MDCK-II cells. The series is classed as ADME, cell-based, Canis lupus familiaris.
A short description of series [3]: Solubility of compound at pH 7. Format: physicochemical. The following applies: buffer.
Series [4] can be described thus: Unbound clearance in Wistar Han rat at 0.1 mg/kg, iv. Format: ADME, organism-based. The following applies: in vivo.
A short description of series [5]: Volume of distribution in C57BL/6 mouse at 10 mg/kg, po or 1 mg/kg, iv. The series is classed as ADME, organism-based. The following applies: in vivo.
The nature of series [6]: MRT in Wistar Han rat at 0.1 mg/kg, iv. The series is classed as ADME, organism-based. The following applies: in vivo.
Series [7] is described as follows: Fraction unbound clearance in C57BL/6 mouse at 10 mg/kg, po or 1 mg/kg, iv. The series is classed as ADME, organism-based. The following applies: in vivo.
The nature of series [8]: Clearance in C57BL/6 mouse at 10 mg/kg, po or 1 mg/kg, iv. Format: ADME, organism-based. The following applies: in vivo.
Series [9] in a line: Oral bioavailability in C57BL/6 mouse at 10 mg/kg. Format: ADME, organism-based. The following applies: in vivo.
The nature of series [10]: Volume of distribution in Wistar Han rat at 0.1 mg/kg, iv. Format: ADME, organism-based. The following applies: in vivo.
Series [11] is described as follows: MRT in C57BL/6 mouse at 10 mg/kg, po or 1 mg/kg, iv. The series is classed as ADME, organism-based. The following applies: in vivo.
Series [12] is described as follows: Clearance in Wistar Han rat at 0.1 mg/kg, iv. The following applies: in vivo. Format: ADME, organism-based.
In series [13] the test system is Dendritic cell. The series is described as follows: […] in human monocyte derived dendritic cell assessed as increase in TNF-alpha production incubated for 24 hrs by ELISA. The series is classed as functional, cell-based.
Series [14] concerns Dendritic cell. The series is described as follows: […] in human monocyte derived dendritic cell assessed as increase in IL-6 production incubated for 24 hrs by ELISA. The series is classed as functional, cell-based.
Series [15] can be described thus: Solubility of compound at pH 2. The series is classed as physicochemical. The following applies: buffer.
Series [16] can be described thus: AUC in C57BL/6 mouse at 100 mg/kg, po measured after 8 hrs. The arrangement: route oral, dose 100 mg/kg, time 8 hrs. Format: ADME, organism-based. The following applies: in vivo.

The values that follow come from ChEMBL document CHEMBL4814063, “Discovery of Diaminopyrimidine Carboxamide HPK1 Inhibitors as Preclinical Immunotherapy Tool Compounds” (ACS Med Chem Lett, 2021).

≈ marks a conversion by molar mass, not a printed value.

In general, Papp refers to the rate of passage across a membrane or cell layer, normalised by area and donor concentration. As a reminder, the solubility is the concentration that dissolves in the medium under given conditions. The low end stands for a poorly soluble substance, the high end for a readily soluble substance. Consider `COc1cc2c(cc1Nc1ncc(C(N)=O)c(NC3CCCC3)n1)CN(C)CC2`, for which the CLint in [1] is 28 µL/min/1e6 cells. In series [2], the Papp is 3.6 ×10⁻⁶ cm/s. In [3], this compound returned a solubility of 7 µM (≈ 2.78 µg/mL).

The MRT is a mean duration of stay, worked out from the concentration-time curve. Broadly, the bioavailability is the share of a dose that reaches the circulation, judged against a reference dose that is usually intravenous. Read a low bioavailability as poor availability. Take `COc1cc2c(cc1Nc1ncc(C(N)=O)c(Nc3ccccc3[C@H](C)OC)n1)CN(C)CC2`: the CL free in series [4] stood at 2057 mL/min/kg; in series [7], 2452 mL/min/kg. Further, the Vd in series [5] was 1 L/kg; in series [10], 1.8 L/kg. Further, the Papp in series [2] turned out to be 3.1 ×10⁻⁶ cm/s. Further, the mean residence time (MRT) in [6] was determined as 30 min; in series [11] it was 19.8 min. The clearance in series [8] amounted to 52 mL/min/kg; in series [12] it was 56 mL/min/kg. Moreover, in series [9], the bioavailability was 9%.

With `COc1cc2c(cc1Nc1ncc(C(N)=O)c(Nc3c(F)cccc3C(F)(F)F)n1)CN(C)CC2`, the Activity result with Dendritic cell [13] and in the series with Dendritic cell [14] was “Dose-Dependent Effect” each time. The CL free in [4] amounted to 1529 mL/min/kg; in [7], 2170 mL/min/kg. The values for the Vd in series [5] and in [10] were 61 L/kg and 2 L/kg, respectively. In addition, in [2], the Papp is 2.9 ×10⁻⁶ cm/s. Further, the values for the MRT in [6] and in [11] were 78 min and 28.8 min, respectively. Also, the clearance came to 30 mL/min/kg in series [8] and 28 mL/min/kg in [12]. Further, in [9], the bioavailability was found to be 13%.

As for `COc1cc2c(cc1Nc1ncc(C)c(Nc3ccccc3)n1)CN(C)CC2`, the values for the solubility in [3] and in series [15] were 152 µM (≈ 57.1 µg/mL) and 179 µM (≈ 67.2 µg/mL), respectively.

As to `COc1cc2c(cc1Nc1nccc(Nc3ccccc3)n1)CN(C)CC2`, the results for the solubility in series [3] and in series [15] were 147 µM (≈ 53.1 µg/mL) and 160 µM (≈ 57.8 µg/mL), respectively.

`COc1cc2c(cc1Nc1ncc(C(N)=O)c(Nc3c(C)cccc3F)n1)CN(C)CC2`: the CLint in series [1] is 69 µL/min/1e6 cells. Further, the Papp in series [2] turned out to be 2.78 ×10⁻⁶ cm/s. Besides, the solubility in series [3] was 9 µM (≈ 3.93 µg/mL).

Regarding `COc1cc2c(cc1Nc1ncc(C(F)(F)F)c(Nc3ccccc3)n1)CN(C)CC2`, the solubility in series [3] amounted to 96 µM (≈ 41.2 µg/mL); in [15] it was 157 µM (≈ 67.4 µg/mL).

One may read the AUC as the area under the concentration-time curve, a measure of exposure. Low values mean low exposure, high ones high exposure. As to `COc1cc2c(cc1Nc1ncc(C(N)=O)c(Nc3ccccc3CO)n1)CN(C)CC2`, the values for the CL free in series [4] and in series [7] were 548 mL/min/kg and 792 mL/min/kg, respectively. Besides, the figures for the Vd in series [5] and in series [10] were 29 L/kg and 65 L/kg, respectively. Further, the Papp in [2] came to 0.54 ×10⁻⁶ cm/s. Also, the results for the MRT in series [6] and in series [11] were 120 min and 39.6 min, respectively. For the same compound, the values for the clearance in series [8] and in [12] were 67 mL/min/kg and 88 mL/min/kg, respectively. The AUC in series [16] came out at 102 µM·h. In [9], this compound showed a bioavailability of 7.9%.

`COc1cc2c(cc1Nc1ncc(C(N)=O)c(Nc3ccccc3)n1)CN(C)CC2`: the CL free in series [4] amounted to 415 mL/min/kg; in series [7], 2532 mL/min/kg. Further, the CLint in [1] worked out at 70 µL/min/1e6 cells. The Papp in series [2] amounted to 2.5 ×10⁻⁶ cm/s. The mean residence time (MRT) turned out to be 126 min in series [6] and 72 min in [11]. Moreover, the figures for the clearance in series [8] and in series [12] were 46 mL/min/kg and 19 mL/min/kg, respectively. Besides, the solubility turned out to be 92 µM (≈ 37.2 µg/mL) in series [3] and 166 µM (≈ 67.1 µg/mL) in series [15]. Moreover, in series [9], the bioavailability is 17%.

Regarding `COc1cc2c(cc1Nc1ncc(C(N)=O)c(Nc3ccccc3Br)n1)CN(C)CC2`, the CLint in series [1] was found to be 33 µL/min/1e6 cells. In series [2], the apparent permeability (Papp) was determined as 2.12 ×10⁻⁶ cm/s. Also, the solubility in [3] was less than 2 µM.
